Data as given in US20120190669A1, “OXINDOLE COMPOUNDS” (CYLENE PHARMACEUTICALS, INC., priority 2008, published 2012).

Assays:
recombinant human PIM2 = recombinant human PIM2 (Homo sapiens, UniProt Q9P1W9); assay: PIM-2 assay (radiometric); assay type: biochemical; settings: Table 8; read-out: PIM2 IC50
Method: Test compounds dissolved and diluted in DMSO ([…]) were added to a reaction mixture comprising […] of 5× Reaction Buffer (40 mM MOPS pH 7.0, 5 mM EDTA), […] of recombinant human PIM2 solution (4 ng PIM-2 dissolved in dilution buffer (20 mM MOPS pH 7.0; EDTA 1 mM; 5% Glycerol; 0.01% Brij 35; […]; […] 2-mercaptoethanol; 1 mg/ml BSA)) and 8 ul of water. Reactions were initiated by the addition of 10 ul of ATP Solution (49% (15 mM MgCl2; 75 uM ATP) 1% ([γ-33P]ATP: Stock 1 mCi/100 μl; 3000 Ci/mmol (Perkin Elmer)) and 10 ul of substrate peptide solution ([…], dissolved in water at a concentration of 1 mM), Reactions were maintained for 10 min at 30° C. The reactions were quenched with 100 ul of 0.75% Phosphoric acid, then transferred to and filtrered through a Phosphocellulose filter plate (Millipore, MSPH-N6B-50). After washing each well 4 times with 0.75% Phosphoric acid, scintillation fluid (20 uL) was added to each well and the residual radioactivity was measured using a Wallac […] counter.

Pim-3 (h) = target: T1, Pim-3 (h) (Homo sapiens, UniProt Q86V86); assay: PIM-3 assay run at Millipore; assay type: biochemical; settings: Table 8; read-out: PIM3 IC50
T1 construct: purchased Millipore (printed 'Millopore'; assay run as a service at the vendor)
Method: The PIM-3 assay was run at Millopore. The following is the assay as described in the Millopore protocol guide. […] (specific activity approx. 500 cpm/pmol, concentration as required). The reaction is initiated by the addition of the MgATP mix. After incubation for 40 minutes at room temperature, the reaction is stopped by the addition of 5 μL of a 3% phosphoric acid solution. 10 μL of the reaction is then spotted onto a P30 filtermat and washed three times for 5 minutes in 75 mM phosphoric acid and once in methanol prior to drying and scintillation counting.

K-562 = assay: Alamar Blue cell proliferation assay, K-562; assay type: cell-based; settings: Homo sapiens, K562, Table 4, read-out: AB: K-562
Method: (§1) A representative cell-proliferation assay protocol using Alamar Blue dye (stored at 4° C., use 20 ul per well) is described hereafter.
(§2) 96-Well Plate Setup and Compound Treatment
(§3) a. Split and trypsinize cells.
(§4) b. Count cells using hemocytometer.
(§5) c. Plate 4,000-5,000 cells per well in 100 μl of medium and seed into a 96-well plate according to the following plate layout. Add cell culture medium only to wells B10 to B12. Wells B1 to B9 have cells but no compound added.
(§6) d. Add 100 μl of 2× drug dilution to each well in a concentration shown in the plate layout above. At the same time, add 100 μl of media into the control wells (wells 1310 to B12). Total volume is 200 μl/well.
(§7) e. Incubate four (4) days at 37° C., 5% CO2 in a humidified incubator.
(§8) f. Add 20 μl Alamar Blue reagent to each well.
(§9) g. Incubate for four (4) hours at 37° C., 5% CO2 in a humidified incubator.
(§10) h. Record fluorescence at an excitation wavelength of 544 nm and emission wavelength of 590 nm using a microplate reader.
(§11) In the assays, cells are cultured with a test compound for approximately four days, the dye is then added to the cells and fluorescence of […] dye is detected after approximately four hours. Different types of cells can be utilized in the assays (e.g., HCT-116 human colorectal carcinoma cells, PC-3 human prostatic cancer cells and MiaPaca human pancreatic carcinoma cells).

[1] = tested on: MiaPaca human pancreatic carcinoma cells; assay: Alamar Blue cell proliferation assay, MiaPaCa; assay type: cell-based; settings: MIA PaCa-2, Table 4, read-out: AB: MiaPaCa
Method: as §1, §2, §3, §4, §5, §6, §7, §8, §9, §10, §11

[2] = tested on: PC-3 human prostatic cancer cells; assay: Alamar Blue cell proliferation assay, PC3; assay type: cell-based; settings: Table 4, read-out: AB: PC3
Method: as §1, §2, §3, §4, §5, §6, §7, §8, §9, §10, §11

MV-4-11 = assay: Alamar Blue cell proliferation assay, MV-4-11; assay type: cell-based; settings: Homo sapiens, MV4-11, Table 4, read-out: AB: MV-4-11
Method: as §1, §2, §3, §4, §5, §6, §7, §8, §9, §10, §11

THP-1 = assay: Alamar Blue cell proliferation assay, THP-1; assay type: cell-based; settings: Homo sapiens, Table 4, read-out: AB: THP-1
Method: as §1, §2, §3, §4, §5, §6, §7, §8, §9, §10, §11

phospho FLT3 = phospho FLT3 cell-based data; settings: Table 4
phospho BAD = phospho BAD cell-based data; settings: Table 4
MDAMB-231 = assay: Alamar Blue cell proliferation assay, MDAMB-231; assay type: cell-based; settings: Homo sapiens, MDA-MB-231, Table 4, read-out: AB: MDAMB231
Method: as §1, §2, §3, §4, §5, §6, §7, §8, §9, §10, §11

BxPC3 = assay: Alamar Blue cell proliferation assay, BxPC3; assay type: cell-based; settings: Homo sapiens, BXPC-3, Table 4, read-out: AB: BxPC3
Method: as §1, §2, §3, §4, §5, §6, §7, §8, §9, §10, §11

[3] = tested on: leukemic cells from AML patients; settings: Fedorov et al., PNAS 104(51); cited from earlier work
recombinant PIM-1 = recombinant PIM-1 (Homo sapiens, UniProt P11309); assay: PIM-1 kinase assay (radiometric, 15 uM ATP, DMSO 4%); assay type: biochemical; settings: Table 4; 15 um ATP; read-out: PIM1: IC50 (15 um ATP)
MV-4-11 (AML) xenograft = settings: 2008 AACR Annual Meeting, Abstract No. 4974; cited from earlier work
MOLM-13 (AML) xenograft = settings: 2008 AACR Annual Meeting, Abstract No. 4974; cited from earlier work

Sequence of recombinant PIM-1 (P11309 whole entry): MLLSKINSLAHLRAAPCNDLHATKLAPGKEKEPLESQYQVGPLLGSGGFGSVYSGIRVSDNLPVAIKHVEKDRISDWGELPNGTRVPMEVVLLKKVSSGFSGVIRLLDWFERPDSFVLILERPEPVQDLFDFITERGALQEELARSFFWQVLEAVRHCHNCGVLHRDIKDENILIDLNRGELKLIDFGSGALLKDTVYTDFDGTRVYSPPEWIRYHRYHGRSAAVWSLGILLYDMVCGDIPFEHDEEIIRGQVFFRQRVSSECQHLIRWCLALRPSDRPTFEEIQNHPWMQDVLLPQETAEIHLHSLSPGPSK
Sequence of recombinant human PIM2 (Q9P1W9 whole entry): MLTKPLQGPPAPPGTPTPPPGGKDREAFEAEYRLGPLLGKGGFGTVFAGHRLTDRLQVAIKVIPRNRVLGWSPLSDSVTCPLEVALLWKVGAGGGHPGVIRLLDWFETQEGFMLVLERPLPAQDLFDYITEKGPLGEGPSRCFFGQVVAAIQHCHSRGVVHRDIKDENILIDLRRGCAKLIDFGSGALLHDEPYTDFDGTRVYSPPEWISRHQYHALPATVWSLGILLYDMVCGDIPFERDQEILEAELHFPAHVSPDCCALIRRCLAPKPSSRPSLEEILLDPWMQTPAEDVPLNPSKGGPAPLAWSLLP

Row | IC50 (K-562) [nM] | IC50 [1] [nM] | IC50 [2] [nM] | IC50 (MV-4-11) [nM] | IC50 (THP-1) [nM] | IC50 (phospho FLT3) [nM] | IC50 (phospho BAD) [nM] | IC50 (recombinant PIM-1) [nM] | SMILES | further results
1 |  |  |  |  |  |  |  |  | C/C(=C1\C(=O)Nc2ccc(Cl)cc21)c1ccc(-c2ccc(C(=O)N3CCCN(C)CC3)cc2)o1 [drawing 336] | IC50 (recombinant human PIM2): < 500 nM; IC50 (Pim-3 (h)): < 1000 nM
2 | > 10000 | > 30000 | > 30000 | 608 | > 30000 | > 10000 | 3500 |  | O=C1Nc2ccc(Cl)cc2/C1=C\c1ccc(-c2cccc(C(=O)NCCCO)c2)o1 | 
3 | 777 |  |  | 178 |  | 9060 | 1760 |  | C/C(=C1\C(=O)Nc2ccc(Cl)cc21)c1ccc(-c2cccc(C(=O)N3CCCN(C)CC3)c2)o1 | IC50 (MDAMB-231): 816 nM; IC50 (BxPC3): 785 nM
4 |  |  |  |  |  |  |  |  | CN(C)C[C@@H]1CCn2cc(c3ccccc32)C2=C(C(=O)NC2=O)c2cn(c3ccccc23)CCO1 [Ly5333′531] | cell growth and cell death in leukemic cells from AML patients [3]: suppressed cell growth and induced cell death
5 |  |  |  |  |  |  |  |  | CN1CCCN(C(=O)c2ccc(-c3ccc(/C=C4/C(=O)Nc5ccc(Cl)cc54)o3)cc2)CC1 [drawing 337] | IC50 (recombinant human PIM2): < 500 nM; IC50 (Pim-3 (h)): < 1000 nM
6 | 1610 | > 30000 | > 30000 | 288 | 2900 | > 10000 | 609 | 81 | O=C1Nc2ccc(Cl)cc2/C1=C\c1ccc(-c2cccc(C(=O)NCCN(CCO)CCO)c2)o1 [drawing 238] | 
7 | 1370 | > 10000 | 1350 | 350 | 3860 | > 10000 | 2130 | 549 | O=C(CN1CCCC1)Nc1cccc(-c2ccc(/C=C3/C(=O)Nc4ccccc43)o2)c1 [drawing 236] | 
8 | 472 | 101 | 3930 | 349 | 3770 | > 10000 | 1410 | 259 | CCN(CC)CCC(=O)Nc1cccc(-c2ccc(/C=C3/C(=O)Nc4ccccc43)o2)c1 [drawing 235] | 
9 |  |  |  |  |  |  |  |  | CN1CCC(CNc2ccc3ncc(-c4cccc(OC(F)(F)F)c4)n3n2)CC1 [SGI-1776] | tumor regression in MV-4-11 (AML) xenograft model (MV-4-11 (AML) xenograft): significant tumor regression; tumor regression in MOLM-13 (AML) xenograft model (MOLM-13 (AML) xenograft): significant tumor regression
